Key:
[1] = tested on: morphine-addicted ovariectomized rats; assay: Rodent model of hot flashes: tail skin temperature change after naloxone in morphine-addicted ovariectomized rats; assay type: in vivo, rat; settings: for Mean Tail Skin Temp.: tail skin temperature change after naloxone, ovariectomized rats, vehicle 5.6° C.
Experimental: The SERM, (R)-6-{2-{Ethyl[4-(2-ethylaminoethyl)benzyl]amino}-4-methoxyphenyl}-5,6,7,8-tetrahydronaphthalen-2-ol (“SERM A”), was evaluated for its ability to modulate vasomotor activity in a rodent model of hot flashes. (Merchenthaler, Maturitas, 1998 30:307-316). Briefly, ovariectomized adult rats were implanted with slow release morphine sulfate pellets on days 5 and 6 post-ovariectomy. Beginning at 4 days post-ovariectomy, once-daily treatment was initiated with a positive control, ethynyl estradiol (0.3 mg/kg), SERM A (1 and 10 mg/kg) or vehicle (95% corn oil, 5% DMSO by volume), delivered by subcutaneous injection. Treatment with the test agents was continued daily until the end of the study. On day 10, probes capable of continuously monitoring temperature were applied to the tail skin surface of the treated rats. The rats were then treated with naloxone, a morphine antagonist, and the change in skin temperature recorded for a period of 60 minutes.

[2] = tested on: 19-day old Sprague-Dawley rats (uteri); settings: rat, in vivo
Experimental: (§1) 19-day old Sprague-Dawley rats were treated with either vehicle (95% corn oil/5% DMSO), estradiol (0.01 mg/kg), raloxifene (10 mg/kg), tamoxifen (1 mg/kg) or SERM A (100, 30, 10, 3, 1, or 0.3 mg/kg). The rats were dosed once daily by subcutaneous injection for three consecutive days. 24 hours after the last dose, the rats were euthanized, uteri were harvested and their wet weight recorded.

[3] = tested on: 19-day old Sprague-Dawley rats (uteri); assay: Antagonism of estradiol-mediated uterine stimulation: uterine wet weight in 19-day old rats; assay type: in vivo, rat; settings: SERM A 10, 3, 1, 0.3, 0.1, 0.03, 0.01 mg/kg combined with estradiol 0.01 mg/kg, s.c. once daily for three days; FIG. 3
Experimental: as §1, with “mg/kg), or a combination of estradiol (0.01” for “mg/kg), raloxifene (10 mg/kg), tamoxifen (1”, “mg/kg) and” for “mg/kg) or”, “A (10,” for “A (100, 30, 10,”, “1, 0.3, 0.1, 0.03, 0.01” for “1, or 0.3”

SMILES | increase in skin temperature after naloxone treatment, compared to vehicle ([1]; 0.3 mg/kg s.c. once daily) | Mean Tail Skin Temp. ([1]; 0.3 mg/kg once daily s.c.) | increase in skin temperature after naloxone treatment, compared to vehicle ([1]; 0.1 and 0.01 mg/kg) | increase in skin temperature after naloxone treatment, compared to vehicle ([1]; 1 or 10 mg/kg s.c. once daily) | elevation of tail skin temperature associated with morphine addiction withdrawal ([1]; morphine-addicted ovariectomized rats, FIG. 1) | activity on reducing tail skin temperature increase, compared with positive control ethynyl estradiol ([1]; statistical analysis, SERM A 1 and 10 mg/kg vs ethynyl estradiol 0.3 mg/kg) | Mean Tail Skin Temp. ([1]; 1 mg/kg once daily s.c.) | Mean Tail Skin Temp. ([1]; 10 mg/kg once daily s.c.) | uterine stimulation at doses effective at modulating vasomotor response [2] | estradiol-mediated increase in uterine weight [3]
C#C[C@]1(O)CC[C@H]2[C@@H]3CCc4cc(O)ccc4[C@H]3CC[C@@]21C [Ethynyl estradiol, ethynyl estradiol, reference compound] | significantly reduced the increase in skin temperature | 1.2 °C | – | – | – | – | – | – | – | –
CCNCCc1ccc(CN(CC)c2cc(OC)ccc2[C@@H]2CCc3cc(O)ccc3C2)cc1 [SERM A, (R)-6-{2-{Ethyl[4-(2-ethylaminoethyl)benzyl]amino}-4-methoxyphenyl}-5,6,7,8-tetrahydronaphthalen-2-ol] | – | – | did not significantly reduce the increase in skin temperature | significantly reduced the increase in skin temperature | suppressing the elevation of tail skin temperature | no significant difference | 2.1 °C | 2.0 °C | lack of uterine stimulation | decreased the estradiol-mediated increase in a dosage dependent manner

Source: patent US8933130B2, “Treatment of vasomotor symptoms with selective estrogen receptor modulators” (Radius Health, Inc., priority 2006, dated 2015)
